Data: patent publication US10807988B2, “3-((hetero-)aryl)-8-amino-2-oxo-1,3-diaza-spiro-[4.5]-decane derivatives” (Grünenthal GmbH, priority 2016, dated 2020)

The molecules below were run against human nociceptin/orphanin FQ peptide (hNOP) receptor (Homo sapiens (Human), UniProt P41146) (assay: not given).
Type: binding
With CN1CCN(c2ncc(N3CC4(CCC(c5ccccc5)(N(C)CC5CCOC5)CC4)NC3=O)cn2)CC1 (single isomer, unassigned; enantiomer 1) [SC_3324, cis-3-[2-(4-Methyl-piperazin-1-yl)-pyrimidin-5-yl]-8-[methyl-(tetrahydro-furan-3-yl-methyl)-amino]-8-phenyl-1,3-diazaspiro[4.5]decan-2-one (enantiomer 1)] the “hNOP % inhibition at 1 μM” value was 12%. In the case of CN1CCN(c2ncc(N3CC4(CCC(c5ccccc5)(N(C)CC5CCOC5)CC4)NC3=O)cn2)CC1 (single isomer, unassigned; enantiomer 2) [SC_3325, cis-3-[2-(4-Methyl-piperazin-1-yl)-pyrimidin-5-yl]-8-[methyl-(tetrahydro-furan-3-yl-methyl)-amino]-8-phenyl-1,3-diazaspiro[4.5]decan-2-one (enantiomer 2)], the “hNOP % inhibition at 10 μM” value is reported as 53%@10 μM. CNC1(c2ccccc2)CCC2(CC1)CN(c1ccccc1C(N)=O)C(=O)N2 (stereo not drawn) [SC_3119, cis-2-(8-Methylamino-2-oxo-8-phenyl-1,3-diazaspiro[4.5]decan-3-yl)-benzamide] was tested, and the “hNOP % inhibition at 1 μM” value was 22%. With CCNC1(c2ccccc2)CCC2(CC1)CN(c1ccccc1C(N)=O)C(=O)N2 (stereo not drawn) [SC_3125, trans-2-(8-Ethylamino-2-oxo-8-phenyl-1,3-diazaspiro[4.5]decan-3-yl)-benzamide] the “hNOP % inhibition at 10 μM” value was 3%@10 μM. CCNC1(c2ccccc2)CCC2(CC1)CN(c1ccccc1C(N)=O)C(=O)N2 (stereo not drawn) [SC_3126, cis--2-(8-Ethylamino-2-oxo-8-phenyl-1,3-diazaspiro[4.5]decan-3-yl)-benzamide] was tested, and the “hNOP % inhibition at 1 μM” value was 0%. For CCN[C@]1(c2ccccc2)CC[C@@]2(CC1)CN(c1ccccc1C#N)C(=O)N2 [SC_3127, cis-2-(8-Ethylamino-2-oxo-8-phenyl-1,3-diazaspiro[4.5]decan-3-yl)-benzonitrile], the “hNOP % inhibition at 1 μM” value was 0%. CCN[C@]1(c2ccccc2)CC[C@]2(CC1)CN(c1ccccc1C#N)C(=O)N2 [SC_3128, cis-2-(8-Ethylamino-2-oxo-8-phenyl-1,3-diazaspiro[4.5]decan-3-yl)-benzonitrile] was tested, and the “hNOP % inhibition at 1 μM” value was 0%. With CCNC1(c2ccccc2)CCC2(CC1)CN(c1ccc(C#N)cc1OC)C(=O)N2 (stereo not drawn) [SC_3134, trans-4-(8-Ethylamino-2-oxo-8-phenyl-1,3-diazaspiro[4.5]decan-3-yl)-3-methoxy-benzonitrile] the “hNOP % inhibition at 10 μM” value was 3%@10 μM. With CCNC1(c2ccccc2)CCC2(CC1)CN(c1ccc(C#N)cc1OC)C(=O)N2 (stereo not drawn) [SC_3135, cis-4-(8-Ethylamino-2-oxo-8-phenyl-1,3-diazaspiro[4.5]decan-3-yl)-3-methoxy-benzonitrile] the “hNOP % inhibition at 1 μM” value was 1%. In the case of CCN[C@]1(c2ccccc2)CC[C@]2(CC1)CN(c1cnc(C#N)nc1OC)C(=O)N2 [SC_3143, cis-5-(8-Ethylamino-2-oxo-8-phenyl-1,3-diazaspiro[4.5]decan-3-yl)-4-methoxy-pyrimidine-2-carbonitrile], the “hNOP % inhibition at 1 μM” value is reported as 0%. CCN[C@]1(c2ccccc2)CC[C@@]2(CC1)CN(c1cnc(C#N)nc1OC)C(=O)N2 [SC_3144, trans-5-(8-Ethylamino-2-oxo-8-phenyl-1,3-diazaspiro[4.5]decan-3-yl)-4-methoxy-pyrimidine-2-carbonitrile] was tested, and the “hNOP % inhibition at 1 μM” value was 0%. In the case of CN(C)[C@]1(Cc2ccccc2)CC[C@@]2(CC1)CN(c1cnc(N3CCOCC3)nc1)C(=O)N2 [SC_3160, trans-8-Benzyl-8-dimethylamino-3-(2-morpholin-4-yl-pyrimidin-5-yl)-1,3-diazaspiro[4.5]decan-2-one], the “hNOP % inhibition at 1 μM” value is reported as 4%. CN(C)C1(Cc2ccccc2)CCC2(CC1)CN(c1cnc(N3CCOCC3)nc1)C(=O)N2 (stereo not drawn) [SC_3161, cis-8-Benzyl-8-dimethylamino-3-(2-morpholin-4-yl-pyrimidin-5-yl)-1,3-diazaspiro[4.5]decan-2-one] was tested, and the “hNOP % inhibition at 1 μM” value was 2%. In the case of CN(C)C1(Cc2ccccc2)CCC2(CC1)CN(c1cnc(C(F)(F)F)nc1)C(=O)N2 (stereo not drawn) [SC_3165, cis-8-Benzyl-8-dimethylamino-3-[2-(trifluoromethyl)-pyrimidin-5-yl]-1,3-diazaspiro[4.5]decan-2-one], the “hNOP % inhibition at 1 μM” value is reported as 4%. CN(C)[C@]1(Cc2ccccc2)CC[C@@]2(CC1)CN(c1cnc(C(F)(F)F)nc1)C(=O)N2 [SC_3166, trans-8-Benzyl-8-dimethylamino-3-[2-(trifluoromethyl)-pyrimidin-5-yl]-1,3-diazaspiro[4.5]decan-2-one] was tested, and the “hNOP % inhibition at 1 μM” value was 3%. With Cc1cc(C(F)(F)F)ncc1N1C[C@]2(CC[C@@](Cc3ccccc3)(N(C)C)CC2)NC1=O [SC_3174, trans-8-Benzyl-8-dimethylamino-3-[4-methyl-6-(trifluoromethyl)-pyridin-3-yl]-1,3-diazaspiro[4.5]decan-2-one] the “hNOP % inhibition at 1 μM” value was 3%. In the case of Cc1cc(C(F)(F)F)ncc1N1CC2(CCC(Cc3ccccc3)(N(C)C)CC2)NC1=O (stereo not drawn) [SC_3215, cis-8-Benzyl-8-dimethylamino-3-[4-methyl-6-(trifluoromethyl)-pyridin-3-yl]-1,3-diazaspiro[4.5]decan-2-one], the “hNOP % inhibition at 1 μM” value is reported as 0%. For CN(C)C1(c2nc3ccccc3n2C)CCC2(CC1)CN(c1cnc(C(F)(F)F)nc1)C(=O)N2 (stereo not drawn) [SC_3219, cis-8-Dimethylamino-8-(1-methyl-1H-benzoimidazol-2-yl)-3-[2-(trifluoromethyl)-pyrimidin-5-yl]-1,3-diazaspiro[4.5]decan-2-one], the “hNOP % inhibition at 1 μM” value was 0%. For CN(CC1CCOC1)[C@]1(c2ccccc2)CC[C@]2(CC1)CN(c1cnc(N3CCOCC3)nc1)C(=O)N2 (stereo partly drawn) [SC_3304, cis-8-[Methyl-(tetrahydro-furan-3-yl-methyl)-amino]-3-(2-morpholin-4-yl-pyrimidin-5-yl)-8-phenyl-1,3-diazaspiro[4.5]decan-2-one], the “hNOP % inhibition at 1 μM” value was 9%. For CN(CC1CCOC1)[C@]1(c2ccccc2)CC[C@]2(CC1)CN(c1cnc(N3CCOCC3)nc1)C(=O)N2 (stereo partly drawn) [SC_3305, cis-8-[Methyl-(tetrahydro-furan-3-yl-methyl)-amino]-3-(2-morpholin-4-yl-pyrimidin-5-yl)-8-phenyl-1,3-diazaspiro[4.5]decan-2-one], the “hNOP % inhibition at 1 μM” value was 10%.

The molecules below were run against human mu-opioid peptide (hMOP) receptor (Homo sapiens (Human), UniProt P35372) (assay: Human mu-opioid peptide (hMOP) receptor binding assay (SPA, [3H]naloxone displacement)).
Chain of human mu-opioid peptide (hMOP) receptor (P35372 whole entry): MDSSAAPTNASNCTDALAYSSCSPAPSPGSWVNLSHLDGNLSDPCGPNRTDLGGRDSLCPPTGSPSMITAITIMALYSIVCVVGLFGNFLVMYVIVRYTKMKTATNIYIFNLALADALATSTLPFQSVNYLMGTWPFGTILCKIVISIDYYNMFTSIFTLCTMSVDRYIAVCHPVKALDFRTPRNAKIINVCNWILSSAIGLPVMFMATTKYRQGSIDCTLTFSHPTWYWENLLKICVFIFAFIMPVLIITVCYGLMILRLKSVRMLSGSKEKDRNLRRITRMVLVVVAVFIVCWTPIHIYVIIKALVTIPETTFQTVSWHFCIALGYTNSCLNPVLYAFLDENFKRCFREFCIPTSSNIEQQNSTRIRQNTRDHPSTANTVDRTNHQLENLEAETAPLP
Work on CN(C)[C@]1(c2ccccc2)CC[C@]2(CC1)CN(c1cnc(C#N)nc1)C(=O)N2CCO [SC_3025, cis-5-[8-Dimethylamino-1-(2-hydroxy-ethyl)-2-oxo-8-phenyl-1,3-diazaspiro[4.5]decan-3-yl]-pyrimidine-2-carbonitrile] yielded a Ki of 1.53 µM. CNC1(c2ccccc2)CCC2(CC1)CN(c1ccccc1C(N)=O)C(=O)N2 (stereo not drawn) [SC_3119, cis-2-(8-Methylamino-2-oxo-8-phenyl-1,3-diazaspiro[4.5]decan-3-yl)-benzamide] was tested, and the “hMOP % inhibition at 1 μM” value was 10%. With CN(C)C1(c2nc3ccccc3n2C)CCC2(CC1)CN(c1cnc(C(F)(F)F)nc1)C(=O)N2 (stereo not drawn) [SC_3219, cis-8-Dimethylamino-8-(1-methyl-1H-benzoimidazol-2-yl)-3-[2-(trifluoromethyl)-pyrimidin-5-yl]-1,3-diazaspiro[4.5]decan-2-one] the “hMOP % inhibition at 1 μM” value was 1%. With CN(CC1CCOC1)[C@]1(c2ccccc2)CC[C@]2(CC1)CN(c1cnc(N3CCOCC3)nc1)C(=O)N2 (stereo partly drawn) [SC_3304, cis-8-[Methyl-(tetrahydro-furan-3-yl-methyl)-amino]-3-(2-morpholin-4-yl-pyrimidin-5-yl)-8-phenyl-1,3-diazaspiro[4.5]decan-2-one] the “hMOP % inhibition at 1 μM” value was 4%. CN(CC1CCOC1)[C@]1(c2ccccc2)CC[C@]2(CC1)CN(c1cnc(N3CCOCC3)nc1)C(=O)N2 (stereo partly drawn) [SC_3305, cis-8-[Methyl-(tetrahydro-furan-3-yl-methyl)-amino]-3-(2-morpholin-4-yl-pyrimidin-5-yl)-8-phenyl-1,3-diazaspiro[4.5]decan-2-one] was tested, and the “hMOP % inhibition at 1 μM” value was 0%.
